# In patent US11285130B2, “Treatment of mitochondrial diseases” (Khondrion IP B.V., priority 2017, dated 2022):
# Read-outs that look alike come from different tables or passages of the source.
# Legend:
# [1] = test system: primary human fibroblasts from patients with Leigh syndrome; assay: Oxidative stress-induced cell death (BSO) assay, Leigh patient fibroblasts; format: cell-based
# From the text: (§1) To determine the effective concentration of the compounds (the concentrations that protect patient cells against oxidative stress-induced cell death) the applicant established an assay using stressed primary human fibroblasts from patients with Leigh syndrome, MELAS or LHON diseases. Utilising the inherent oxidative stress of fibroblasts from patients with mitochondrial disease, their oxidative burden was further increased by depleting cellular glutathione with an inhibitor of glutathione synthesis, L-buthionine-(S,R)-sulfoximine (BSO). […] Cells were seeded at a density of 3000 cells/well in a 96-well format and incubated with increasing concentrations of compounds in combination with BSO (100 μM, Sigma-aldrich). One day after treatment, the cells were washed twice and stained with a solution of 5 μM calcein-AM (Life technologies C3100MP) during 25 min in 199 medium without phenol red (Life technologies, 11043-023) at room temperature. After 2 washes with PBS (Phosphate buffered saline) the plate was read on a fluorescence plate reader (Fluostar Omega, BMG labtech) and the percentage of cell viability determined as a function of fluorescence intensity.
# [2] = test system: primary human fibroblasts from patients with LHON; assay: Oxidative stress-induced cell death (BSO) assay, LHON patient fibroblasts; format: cell-based; settings: fibroblasts derived from LHON patients, 100 μM BSO; read-out: EC50, protection from oxidative stress-induced cell death
# From the text: as §1
# [3] = MAD study pharmacokinetic analysis; format: in vivo, human; settings: for AUCtau (Geomean) / Cmax (Geomean) / tmax* (median) / Racc (accumulation ratio, Geomean): MAD
# Experimental: (§2) Dose escalation to the next dose level was done after evaluation of the safety and the first 24-hour pharmacokinetic results of the previous dose. […] Anticipated exposures at this starting dose were just below the Minimum Anticipated Biological Effect Level (MABEL). Placebo (an in taste and appearance matching oral liquid) was also administered orally on one occasion in the single-ascending dose part and b.i.d. for 7 Days in the MAD part. […] All samples were stored at <-70° C. until analysis. […] For mean value calculations, all values below the limit of quantification (LOQ) were set to zero. […] The non-compartmental pharmacokinetic analysis was performed using Phoenix, Version 6.3 (Pharsight Corporation, Mountain View, Calif., USA). […] The PK parameters were calculated on the basis of the actual blood sampling time points relative to dosing. Selected pharmacokinetic parameters (Cmax, tmax, t1/2, AUClast and AUC0-int) following single-dose administration and selected pharmacokinetic parameters Cmax, tmax, [NT], the accumulation factor (Racc) and time to reach steady state) following multiple dose administration were determined. In urine, the percentage of dose excreted in urine was determined for the single- and multiple-dose administration.
# [4] = SAD study pharmacokinetic analysis; format: in vivo, human
# Experimental: as §2
# [5] = test system: primary human fibroblasts from patients with MELAS; assay: Oxidative stress-induced cell death (BSO) assay, MELAS patient fibroblasts; format: cell-based; settings: fibroblasts derived from MELAS patients, 100 μM BSO; read-out: EC50, protection from oxidative stress-induced cell death
# From the text: as §1
smiles,measurement,setting,value
"COC1=C(OC)C(=O)C(CCCCCCCCCCO)=C(C)C1=O [Idebenone, reference compound]",EC50,"[1]; Homo sapiens, in vitro fibroblast assays (Redox assay), fibroblast type not given, values match Leigh, read-out: EC50",1470 nM
CC1=C(C)C(=O)C(CC[C@](C)(O)C(=O)N[C@@H]2CCCNC2)=C(C)C1=O [KH176m],EC50,[2],4 nM
same,AUCtau (Geomean),"[3]; KH176 100 mg b.i.d, Day 1",702 ng·h/mL
same,Cmax (Geomean),"[3]; KH176 100 mg b.i.d, Day 1",99.4 ng/mL
same,tmax* (median),"[3]; KH176 100 mg b.i.d, Day 1",1.50 h
same,AUCtau (Geomean),"[3]; KH176 100 mg b.i.d, Day 7",1310 ng·h/mL
same,Cmax (Geomean),"[3]; KH176 100 mg b.i.d, Day 7",152 ng/mL
same,"Racc (accumulation ratio, Geomean)","[3]; KH176 100 mg b.i.d, Day 7",1.86
same,tmax* (median),"[3]; KH176 100 mg b.i.d, Day 7",1.00 h
same,AUCtau (Geomean),"[3]; KH176 200 mg b.i.d, Day 1",1680 ng·h/mL
same,Cmax (Geomean),"[3]; KH176 200 mg b.i.d, Day 1",251 ng/mL
same,tmax* (median),"[3]; KH176 200 mg b.i.d, Day 1",1.75 h
same,AUCtau (Geomean),"[3]; KH176 200 mg b.i.d, Day 7",2220 ng·h/mL
same,Cmax (Geomean),"[3]; KH176 200 mg b.i.d, Day 7",250 ng/mL
same,"Racc (accumulation ratio, Geomean)","[3]; KH176 200 mg b.i.d, Day 7",1.32
same,tmax* (median),"[3]; KH176 200 mg b.i.d, Day 7",1.50 h
same,AUCtau (Geomean),"[3]; KH176 400 mg b.i.d, Day 1",3600 ng·h/mL
same,Cmax (Geomean),"[3]; KH176 400 mg b.i.d, Day 1",550 ng/mL
same,tmax* (median),"[3]; KH176 400 mg b.i.d, Day 1",1.25 h
same,AUCtau (Geomean),"[3]; KH176 400 mg b.i.d, Day 7",4270 ng·h/mL
same,Cmax (Geomean),"[3]; KH176 400 mg b.i.d, Day 7",450 ng/mL
same,"Racc (accumulation ratio, Geomean)","[3]; KH176 400 mg b.i.d, Day 7",1.19
same,tmax* (median),"[3]; KH176 400 mg b.i.d, Day 7",1.50 h
same,"AUCtau (one dosing interval, 12 hours), range","[3]; steady state, 100 mg BID",851 to 1570 ng·h/mL
same,"average concentrations, range","[3]; steady state, 100 mg BID",70.9 to 130.8 ng/mL
same,"maximum concentration, range","[3]; steady state, 100 mg BID, healthy subjects",89.4 to 204 ng/mL
same,EC50,"[1]; fibroblasts derived from Leigh patients, 100 μM BSO, one day, calcein-AM viability, read-out: EC50 (half maximum effective concentration), protection from oxidative stress-induced cell death",16 nM
same,EC50 expressed in ng/mL,"[1]; in vitro fibroblast assays (Redox assay), fibroblast type not given, values match Leigh",around 5.8 ng/mL
same,EC50,"[1]; in vitro fibroblast assays (Redox assay), fibroblast type not given, values match Leigh, read-out: EC50",16 nM
same,"AUC0-inf ratio (fed/fasted), 90% CI","[4]; 100 mg, fed versus fasted",0.90 (90% Cl 0.57-1.41)
same,AUC0-inf (Geomean),"[4]; SAD, KH176 10 mg, fasted",234 ng·h/mL
same,AUClast (Geomean),"[4]; SAD, KH176 10 mg, fasted",151 ng·h/mL
same,Cmax (Geomean),"[4]; SAD, KH176 10 mg, fasted",14.2 ng/mL
same,t1/2 (Geomean),"[4]; SAD, KH176 10 mg, fasted",16.6 h
same,tmax* (median),"[4]; SAD, KH176 10 mg, fasted",1.25 h
same,AUC0-inf (Geomean),"[4]; SAD, KH176 30 mg, fasted",881 ng·h/mL
same,AUClast (Geomean),"[4]; SAD, KH176 30 mg, fasted",547 ng·h/mL
same,Cmax (Geomean),"[4]; SAD, KH176 30 mg, fasted",49.4 ng/mL
same,t1/2 (Geomean),"[4]; SAD, KH176 30 mg, fasted",17.8 h
same,tmax* (median),"[4]; SAD, KH176 30 mg, fasted",1.50 h
same,AUC0-inf (Geomean),"[4]; SAD, KH176 100 mg, fasted",2690 ng·h/mL
same,AUClast (Geomean),"[4]; SAD, KH176 100 mg, fasted",1810 ng·h/mL
same,Cmax (Geomean),"[4]; SAD, KH176 100 mg, fasted",168 ng/mL
same,t1/2 (Geomean),"[4]; SAD, KH176 100 mg, fasted",15.4 h
same,tmax* (median),"[4]; SAD, KH176 100 mg, fasted",1.25 h
same,AUC0-inf (Geomean),"[4]; SAD, KH176 100 mg, fed",2410 ng·h/mL
same,AUClast (Geomean),"[4]; SAD, KH176 100 mg, fed",1590 ng·h/mL
same,Cmax (Geomean),"[4]; SAD, KH176 100 mg, fed",117 ng/mL
same,t1/2 (Geomean),"[4]; SAD, KH176 100 mg, fed",14.9 h
same,tmax* (median),"[4]; SAD, KH176 100 mg, fed",2.50 h
same,AUC0-inf (Geomean),"[4]; SAD, KH176 300 mg, fasted",6890 ng·h/mL
same,AUClast (Geomean),"[4]; SAD, KH176 300 mg, fasted",4830 ng·h/mL
same,Cmax (Geomean),"[4]; SAD, KH176 300 mg, fasted",497 ng/mL
same,t1/2 (Geomean),"[4]; SAD, KH176 300 mg, fasted",14.3 h
same,tmax* (median),"[4]; SAD, KH176 300 mg, fasted",1.24 h
same,AUC0-inf (Geomean),"[4]; SAD, KH176 800 mg, fasted",18700 ng·h/mL
same,AUClast (Geomean),"[4]; SAD, KH176 800 mg, fasted",11700 ng·h/mL
same,Cmax (Geomean),"[4]; SAD, KH176 800 mg, fasted",1100 ng/mL
same,t1/2 (Geomean),"[4]; SAD, KH176 800 mg, fasted",17.2 h
same,tmax* (median),"[4]; SAD, KH176 800 mg, fasted",1.50 h
same,AUC0-inf (Geomean),"[4]; SAD, KH176 2000 mg, fasted",41300 ng·h/mL
same,AUClast (Geomean),"[4]; SAD, KH176 2000 mg, fasted",23900 ng·h/mL
same,Cmax (Geomean),"[4]; SAD, KH176 2000 mg, fasted",1780 ng/mL
same,t1/2 (Geomean),"[4]; SAD, KH176 2000 mg, fasted",18.9 h
same,tmax* (median),"[4]; SAD, KH176 2000 mg, fasted",1.75 h
same,t1/2,"[4]; SAD, approximate, across dose groups",approximately 16 h
same,median tmax,[4]; fasted condition (100 mg),approximately 1 h
same,median tmax,"[4]; fed condition (100 mg, high calorie/high fat breakfast)",2.5 h
same,EC50,[5],14 nM
